13 compounds from ChEMBL document CHEMBL1201862, “PubChem BioAssay data set” (2004) can be followed below.

SMILES strings stand for the structures. Values joined by “and” are separate entries in the source; they are usually repeats but may differ in a detail not shown here. Equal values may be shown once. Active and inactive are the calls of the source. Some results are limits rather than exact numbers.

Series [1] relates to Vero. In words: Vero E6 cell cytotoxicity, SAR follow-up, cytotoxicity control for West Nile virus antiviral project, synthesized analogs (AID 2244). In kind it is functional. To be noted: Chlorocebus sabaeus.
Series [2] is described as follows: Luminescence Cell-Based Dose Response HTS to Identify Inhibitors of 5'UTR Stem-Loop Driven Prion Protein mRNA Translation in H4 Neuroglioblastoma Cells. [Related pubchem assays: 1827 (Project Summary), 1813 (Primary HTS)]. In kind it is functional.
A short description of series [3]: inhibitors of SNCA 5'UTR-driven reporter translation, confirmation, H4 neuroglioma cells, luminescence (AID 1988). In kind it is functional, cell-based.
Series [4] is described as follows: inhibitors of firefly luciferase expression or activity, dose response, H4 neuroglioma cells, luminescence (AID 1990). In kind it is functional, cell-based.
The nature of series [5]: Luminescence Cell-Based Dose Retest to Confirm Inhibitors of Cancer Stem Cells. [Related pubchem assays (depositor defined):AID2717, AID2721]. Type of series: functional. To be noted: Homo sapiens.
The subject of the next series is BJ. The experiment in a line: cytotoxicity toward Ras-transformed BJeLR fibroblasts, dose response, cell-based, alamar blue fluorescence, cherrypicked samples (AID 2631).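 Also: confirmatory dose-response assay in RAS-dependent BJ fibroblasts engineered with TERT, LT and ST, with cytotoxicity read by fluorescence.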 To be noted: Homo sapiens. In kind it is functional. On the technique in general: Resazurin is reduced to fluorescent resorufin, in cell work by metabolically active cells.
A further series deals with X-box-binding protein 1 (Homo sapiens, UniProt P17861). In kind it is functional, Cricetulus griseus.
Series [6] in a line: HepG2 cell cytotoxicity, dose response, cytotoxicity control for Shn3 inhibitor project, CellTiter-Glo, cherry-picked (AID 624134). In kind it is functional, cell-based.
Series [7] concerns HeLa. In words: Cytotoxicity counterscreen assay for transcriptional activators of heat shock protein 70 (Hsp70). [Related pubchem assays: 1203, 1252 ]. In kind it is functional. To be noted: Homo sapiens. Background: Counterscreens check selectivity or assay interference.
Series [8] in a line: NIH-3T3 fibroblast cytotoxicity, dose response, cytotoxicity control, cell-based, fluorescence, Alamar Blue, secondary assay (AID 2327).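 Also: NIH-3T3 mouse fibroblasts cultured with fluconazole at 8 µg/mL.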 Type of series: functional.
Series [9] in a line: control 3'UTR Renilla luciferase suppression, dose response, counter-screen for Shn3 inhibitor project, cell-based, Clone20-Shn3RL, cherry-picked (AID 624133). Type of series: functional.
Series [10] in a line: C. albicans growth with fluconazole, confirmation, fluorescence, retest (AID 2467). Type of series: functional, cell-based.
The nature of series [11]: Shn3 3'UTR reporter inhibitors, dose response, cell-based, Clone20 osteoblasts, firefly luciferase, cherry-picked (AID 624132).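 Also: firefly luciferase luminescence from reporter carrying the Shn3 3'UTR in osteoblasts.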 Type of series: functional.
For another series, the target named is Bcl-2-like protein 10 (Homo sapiens, UniProt Q9HD36). The experiment in a line: displacers of TR3 peptide from Bcl-B, primary screen, selectivity assay for Bfl-1 inhibitor project, biochemical, fluorescence polarization, FITC-TR3 peptide (AID 748). For orientation: Fluorescence polarisation rises when a labelled molecule tumbles more slowly, as on binding a larger partner.

The next series addresses Cytochrome P450 2C9 (Homo sapiens, UniProt P11712). To be noted: Potency.
Series [12] has as its target Signal transducer and activator of transcription 3 (Homo sapiens, UniProt P40763). The experiment in a line: STAT3 activators, late-stage profile, late-stage follow-up, cell-based, STAT1 reporter, BCL3 qPCR, cytotoxicity, panel member STAT3 Activation (AID 2049).
Series [13] is described as follows: STAT3 activators, late-stage profile, late-stage follow-up, cell-based, STAT1 reporter, BCL3 qPCR, cytotoxicity, panel member Cytotoxicity (AID 2049). In kind it is toxicity.
Series [14] concerns the target Scavenger receptor class B member 1 (Mus musculus, UniProt Q61009). In words: inhibitors of SR-BI mediated HDL lipid uptake, dose response, ldlA[mSR-BI] cells, fluorescence, cherry pick (AID 493194).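 Also: cellular uptake of fluorescent DiI-labeled HDL measured as cell fluorescence.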 In kind it is functional, cell-based.
A short description of another series: cells. In kind it is functional.
For the next series, the system named is Salmon testes DNA. The experiment in a line: DNA intercalators displacing acridine orange, dose response, artefact control for KSHV LANA DNA-binding inhibitor project, biochemical, fluorescence polarization, cherry-picked samples, set 2 (AID 504727). On the set-up: species or system Salmonidae.
The test system of series [15] is HeLa. The experiment in a line: HeLa cell cytotoxicity, dose response, cytotoxicity control, 24 h, cherry-picked samples (AID 504726).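 Also: potency for cytotoxicity as loss of luminescence signal.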 Type of series: functional, cell-based. To be noted: Homo sapiens.
Series [16] addresses T1, Alkaline phosphatase, tissue-nonspecific isozyme (Homo sapiens, UniProt P05186).
T1 sequence (P05186 whole entry): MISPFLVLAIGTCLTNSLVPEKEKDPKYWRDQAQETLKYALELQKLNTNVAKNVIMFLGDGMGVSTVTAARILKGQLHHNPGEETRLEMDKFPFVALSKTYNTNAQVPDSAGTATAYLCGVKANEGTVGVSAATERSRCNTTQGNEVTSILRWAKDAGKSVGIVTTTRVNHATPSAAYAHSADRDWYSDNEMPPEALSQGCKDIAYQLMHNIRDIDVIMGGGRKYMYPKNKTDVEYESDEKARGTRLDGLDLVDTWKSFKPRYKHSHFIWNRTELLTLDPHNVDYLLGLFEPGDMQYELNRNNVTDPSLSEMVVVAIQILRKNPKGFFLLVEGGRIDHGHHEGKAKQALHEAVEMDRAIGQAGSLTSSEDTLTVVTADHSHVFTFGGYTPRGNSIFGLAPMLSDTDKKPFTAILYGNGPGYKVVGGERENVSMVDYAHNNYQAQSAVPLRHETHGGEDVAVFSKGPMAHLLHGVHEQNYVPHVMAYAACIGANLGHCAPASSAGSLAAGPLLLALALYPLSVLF

The target of series [17] is Photoreceptor-specific nuclear receptor (Homo sapiens, UniProt Q9Y5X4). Type of series: functional, cell-based.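 Also: CHO-S cells with Gal4-NCOR and VP16-NR2E3 two-hybrid luciferase reporter.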
Chain of Photoreceptor-specific nuclear receptor (Q9Y5X4 whole entry, the tested form may be a part): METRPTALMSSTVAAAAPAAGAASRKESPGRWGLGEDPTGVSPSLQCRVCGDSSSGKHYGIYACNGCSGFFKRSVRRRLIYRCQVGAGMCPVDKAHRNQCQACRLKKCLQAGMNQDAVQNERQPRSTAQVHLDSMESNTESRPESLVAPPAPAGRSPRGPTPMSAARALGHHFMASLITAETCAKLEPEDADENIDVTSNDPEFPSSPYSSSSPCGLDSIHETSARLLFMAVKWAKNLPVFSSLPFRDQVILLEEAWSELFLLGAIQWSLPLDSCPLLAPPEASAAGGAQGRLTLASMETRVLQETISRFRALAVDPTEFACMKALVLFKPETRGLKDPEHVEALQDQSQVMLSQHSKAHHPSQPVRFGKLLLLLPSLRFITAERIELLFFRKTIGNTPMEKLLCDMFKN
The target of another series is Nonstructural protein 1 (Influenza A virus, UniProt Q194T2). Type of series: functional, Influenza A virus (A/California/07/2009(H1N1)).
The target in series [18] is Serine/threonine-protein phosphatase (Homo sapiens, UniProt Q9BPW0). The experiment in a line: Counterscreen for inhibitors of PP1: fluorescence-based biochemical high throughput dose response assay to identify inhibitors of Protein Phosphatase 5 (PP5). [Related pubchem assays: 2034 (Summary (PP5 inhibitors)), 1987 (PP5 inhibitors in singlate), 2235 (PP1 inhibitors in singlate)].

For the next series, the system named is INS1. In words: beta cell apoptosis inhibitors, cytokine rescue, dose response, luminescence, retest (AID 449756).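 Also: cell death triggered by IL-1 beta plus TNF-alpha plus IFN-gamma mixture; protective hits raise ATP signal compared with cytokine alone wells.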 Type of series: functional, cell-based. To be noted: Rattus norvegicus.
Series [19] is described as follows: cytotoxicity toward NIH3T3 fibroblasts, dose response, counter-screen, cell-based, ATP luminescence, mouse fibroblasts (AID 2010).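 Also: cells exposed to compound for about 90 hours before reading.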 Type of series: functional.
Series [20] addresses Serine/threonine-protein phosphatase PP1-alpha catalytic subunit (Homo sapiens, UniProt P62136). The experiment in a line: PP1 phosphatase inhibitors, dose response, biochemical, fluorescence (AID 2403).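 Also: phosphatase turnover of OMFP into fluorescent 3-O-methylfluorescein.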
Series [21] can be described thus: inhibitors of intracellular T. cruzi replication, confirmation, NIH3T3 host cells, beta-gal luminescence (AID 2044).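 Also: intracellular parasites grown in NIH/3T3 mouse fibroblasts as host cells; luminescent beta-galactosidase reporter signal from transgenic T. cruzi replicating inside host cells; inhibitors lower the luminescence signal.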 Type of series: functional, cell-based.
Series [22] addresses T2, Voltage-gated N-type calcium channel alpha-1B subunit/Amyloid beta A4 precursor protein-binding family A member 1 (Homo sapiens, UniProt Q00975+Q02410). The experiment in a line: disruptors of Mint-PDZ/N-type channel peptide interaction – biochemical, HTRF, set 2, SAR follow-up (AID 434980). Type of series: functional.
The target in series [23] is T2, Voltage-gated N-type calcium channel alpha-1B subunit/Amyloid beta A4 precursor protein-binding family A member 1. In words: disruptors of Mint-PDZ/N-type channel peptide interaction – biochemical, HTRF, SAR follow-up (AID 2489). Type of series: functional.
A further series has as its system P388. In words: cells. Type of series: functional. To be noted: Mus musculus.
A further series concerns P388/ADR. The experiment in a line: cells. Type of series: functional. To be noted: Mus musculus.
The subject of another series is SN12K1. In words: cells. In kind it is functional. To be noted: Homo sapiens.
Series [24] has as its target C-C chemokine receptor type 6 (Homo sapiens, UniProt P51684). In words: CCR6 receptor antagonists, dose response, cell-based, luminescent beta-arrestin readout (AID 504728). Type of series: functional.
Series [25] deals with Vero. In words: cells. Type of series: functional. To be noted: Chlorocebus sabaeus.
Series [26] concerns Vero. The experiment in a line: cells. In kind it is functional, cell-based. To be noted: Chlorocebus sabaeus.
In the next series the target is Beta-galactosidase (Escherichia coli, UniProt Q8VNN2). The experiment in a line: beta-galactosidase enzyme inhibitors and activators, dose response, artefact control for CCR6 antagonist project, biochemical, E. coli enzyme, set 3 (AID 504712). Type of series: functional.
Chain of Beta-galactosidase (Q8VNN2 whole entry): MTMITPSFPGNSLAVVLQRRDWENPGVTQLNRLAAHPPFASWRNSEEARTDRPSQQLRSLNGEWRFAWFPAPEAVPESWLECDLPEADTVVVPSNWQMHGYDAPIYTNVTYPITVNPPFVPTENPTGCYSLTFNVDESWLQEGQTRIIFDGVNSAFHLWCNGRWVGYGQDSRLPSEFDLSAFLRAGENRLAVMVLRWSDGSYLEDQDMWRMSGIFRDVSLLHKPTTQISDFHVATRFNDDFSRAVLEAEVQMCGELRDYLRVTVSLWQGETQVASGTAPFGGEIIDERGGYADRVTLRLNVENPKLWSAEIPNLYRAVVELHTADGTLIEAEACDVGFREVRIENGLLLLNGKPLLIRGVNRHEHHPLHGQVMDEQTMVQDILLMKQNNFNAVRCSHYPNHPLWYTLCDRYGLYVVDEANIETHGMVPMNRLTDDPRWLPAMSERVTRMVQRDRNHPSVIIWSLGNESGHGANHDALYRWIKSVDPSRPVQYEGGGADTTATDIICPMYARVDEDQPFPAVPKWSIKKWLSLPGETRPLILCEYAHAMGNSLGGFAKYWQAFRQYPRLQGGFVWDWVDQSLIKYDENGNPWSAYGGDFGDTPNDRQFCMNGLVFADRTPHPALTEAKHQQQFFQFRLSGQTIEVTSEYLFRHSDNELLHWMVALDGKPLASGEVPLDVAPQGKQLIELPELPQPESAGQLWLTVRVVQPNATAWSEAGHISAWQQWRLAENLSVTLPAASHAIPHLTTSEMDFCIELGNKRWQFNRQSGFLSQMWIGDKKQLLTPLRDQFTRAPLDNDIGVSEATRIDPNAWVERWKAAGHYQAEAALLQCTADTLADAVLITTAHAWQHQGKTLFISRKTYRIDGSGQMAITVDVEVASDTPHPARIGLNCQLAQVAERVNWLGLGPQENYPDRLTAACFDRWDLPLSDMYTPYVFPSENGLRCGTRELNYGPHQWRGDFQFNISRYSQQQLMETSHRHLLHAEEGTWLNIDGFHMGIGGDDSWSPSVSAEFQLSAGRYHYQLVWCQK
The target of series [27] is Cyclin-dependent kinase 5/CDK5 activator 1 (Homo sapiens, UniProt Q00535). The experiment in a line: CDK5/p35 kinase inhibitors, dose response, biochemical, cherry-picked samples, set 2 (AID 504545).
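For Absolute IC50 (XBP1) in this document: confirmatory dose-response counter-screen serving a CHOP assay.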

T2 sequence (Q00975 whole entry): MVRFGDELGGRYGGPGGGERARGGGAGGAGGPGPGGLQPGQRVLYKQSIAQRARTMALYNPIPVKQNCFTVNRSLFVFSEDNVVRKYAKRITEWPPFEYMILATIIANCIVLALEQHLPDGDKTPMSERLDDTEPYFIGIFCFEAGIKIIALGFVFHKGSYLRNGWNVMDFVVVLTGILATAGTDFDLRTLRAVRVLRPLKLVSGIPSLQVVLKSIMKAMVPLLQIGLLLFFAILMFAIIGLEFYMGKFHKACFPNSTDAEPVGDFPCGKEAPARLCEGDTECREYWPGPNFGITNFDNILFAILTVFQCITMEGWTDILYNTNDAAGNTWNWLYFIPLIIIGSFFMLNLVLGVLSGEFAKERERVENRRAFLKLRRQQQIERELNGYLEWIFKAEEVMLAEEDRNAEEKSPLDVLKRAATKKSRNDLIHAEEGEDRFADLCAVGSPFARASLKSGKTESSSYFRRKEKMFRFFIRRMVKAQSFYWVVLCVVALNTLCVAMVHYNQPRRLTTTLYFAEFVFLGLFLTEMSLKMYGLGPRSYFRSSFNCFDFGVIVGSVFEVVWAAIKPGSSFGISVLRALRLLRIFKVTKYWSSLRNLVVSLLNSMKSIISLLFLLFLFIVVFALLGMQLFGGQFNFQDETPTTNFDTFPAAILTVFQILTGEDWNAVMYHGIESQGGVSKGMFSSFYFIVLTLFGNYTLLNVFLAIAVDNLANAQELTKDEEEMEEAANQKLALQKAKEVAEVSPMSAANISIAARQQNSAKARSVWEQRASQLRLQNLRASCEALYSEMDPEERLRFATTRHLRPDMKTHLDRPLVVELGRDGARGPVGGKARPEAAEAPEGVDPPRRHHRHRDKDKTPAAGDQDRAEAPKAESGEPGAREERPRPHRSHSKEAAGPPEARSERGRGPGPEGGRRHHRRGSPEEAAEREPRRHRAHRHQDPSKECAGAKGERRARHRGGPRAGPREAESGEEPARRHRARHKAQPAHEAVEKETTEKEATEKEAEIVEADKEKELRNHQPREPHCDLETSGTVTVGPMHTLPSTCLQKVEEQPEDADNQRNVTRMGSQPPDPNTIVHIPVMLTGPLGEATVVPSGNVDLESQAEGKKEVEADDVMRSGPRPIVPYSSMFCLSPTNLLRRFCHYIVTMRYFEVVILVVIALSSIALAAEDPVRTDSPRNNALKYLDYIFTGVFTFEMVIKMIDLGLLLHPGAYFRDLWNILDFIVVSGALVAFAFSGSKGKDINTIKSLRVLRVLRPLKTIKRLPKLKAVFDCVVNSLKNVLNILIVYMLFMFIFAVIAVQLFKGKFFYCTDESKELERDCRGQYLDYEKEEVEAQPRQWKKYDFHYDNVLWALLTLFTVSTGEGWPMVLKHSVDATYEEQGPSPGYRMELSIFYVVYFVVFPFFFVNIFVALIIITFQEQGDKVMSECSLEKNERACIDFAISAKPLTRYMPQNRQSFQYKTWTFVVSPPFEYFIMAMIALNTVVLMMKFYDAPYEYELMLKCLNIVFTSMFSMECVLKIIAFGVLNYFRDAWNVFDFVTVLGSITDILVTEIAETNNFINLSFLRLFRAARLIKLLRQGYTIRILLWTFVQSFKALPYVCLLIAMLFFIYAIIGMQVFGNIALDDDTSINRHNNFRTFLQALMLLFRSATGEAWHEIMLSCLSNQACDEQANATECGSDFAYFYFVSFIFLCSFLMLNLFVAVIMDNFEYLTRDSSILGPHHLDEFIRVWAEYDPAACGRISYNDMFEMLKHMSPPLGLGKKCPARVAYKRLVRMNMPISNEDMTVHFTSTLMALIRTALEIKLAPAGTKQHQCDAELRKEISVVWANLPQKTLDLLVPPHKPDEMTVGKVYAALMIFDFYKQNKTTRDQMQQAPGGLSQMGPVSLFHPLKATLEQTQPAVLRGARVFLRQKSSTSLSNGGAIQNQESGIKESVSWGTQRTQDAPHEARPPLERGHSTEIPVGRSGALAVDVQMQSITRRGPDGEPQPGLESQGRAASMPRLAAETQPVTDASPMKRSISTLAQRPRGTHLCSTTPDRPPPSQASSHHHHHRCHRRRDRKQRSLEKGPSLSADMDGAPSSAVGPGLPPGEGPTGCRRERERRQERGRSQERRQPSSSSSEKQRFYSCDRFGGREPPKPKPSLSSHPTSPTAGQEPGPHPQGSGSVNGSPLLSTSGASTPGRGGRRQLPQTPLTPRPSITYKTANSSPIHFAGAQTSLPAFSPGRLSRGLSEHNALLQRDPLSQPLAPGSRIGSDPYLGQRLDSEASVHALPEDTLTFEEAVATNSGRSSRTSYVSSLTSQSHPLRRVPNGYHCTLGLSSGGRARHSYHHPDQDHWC
T2 sequence (Q02410 whole entry): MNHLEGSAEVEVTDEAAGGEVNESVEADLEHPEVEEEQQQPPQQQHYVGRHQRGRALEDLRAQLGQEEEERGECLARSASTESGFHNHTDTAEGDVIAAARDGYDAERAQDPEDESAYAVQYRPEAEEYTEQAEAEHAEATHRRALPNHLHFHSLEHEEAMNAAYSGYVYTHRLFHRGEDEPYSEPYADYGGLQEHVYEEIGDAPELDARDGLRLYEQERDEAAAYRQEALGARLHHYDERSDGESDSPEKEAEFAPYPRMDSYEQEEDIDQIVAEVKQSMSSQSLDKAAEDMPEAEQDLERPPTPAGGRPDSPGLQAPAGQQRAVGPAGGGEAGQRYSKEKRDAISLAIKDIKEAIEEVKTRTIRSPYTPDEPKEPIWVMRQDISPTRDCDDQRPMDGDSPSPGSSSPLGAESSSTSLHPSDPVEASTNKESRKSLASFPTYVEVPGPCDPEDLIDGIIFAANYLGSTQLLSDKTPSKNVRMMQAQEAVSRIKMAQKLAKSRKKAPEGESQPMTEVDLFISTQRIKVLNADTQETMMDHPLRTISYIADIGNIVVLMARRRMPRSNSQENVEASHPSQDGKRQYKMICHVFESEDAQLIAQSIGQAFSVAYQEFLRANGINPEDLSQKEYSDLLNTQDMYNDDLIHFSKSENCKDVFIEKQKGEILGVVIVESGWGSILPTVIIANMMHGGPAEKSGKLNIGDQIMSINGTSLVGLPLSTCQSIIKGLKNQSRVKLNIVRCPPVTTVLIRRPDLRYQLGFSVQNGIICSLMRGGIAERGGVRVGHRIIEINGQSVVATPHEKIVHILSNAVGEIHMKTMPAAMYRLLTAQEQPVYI
Chain of Scavenger receptor class B member 1 (Q61009 whole entry): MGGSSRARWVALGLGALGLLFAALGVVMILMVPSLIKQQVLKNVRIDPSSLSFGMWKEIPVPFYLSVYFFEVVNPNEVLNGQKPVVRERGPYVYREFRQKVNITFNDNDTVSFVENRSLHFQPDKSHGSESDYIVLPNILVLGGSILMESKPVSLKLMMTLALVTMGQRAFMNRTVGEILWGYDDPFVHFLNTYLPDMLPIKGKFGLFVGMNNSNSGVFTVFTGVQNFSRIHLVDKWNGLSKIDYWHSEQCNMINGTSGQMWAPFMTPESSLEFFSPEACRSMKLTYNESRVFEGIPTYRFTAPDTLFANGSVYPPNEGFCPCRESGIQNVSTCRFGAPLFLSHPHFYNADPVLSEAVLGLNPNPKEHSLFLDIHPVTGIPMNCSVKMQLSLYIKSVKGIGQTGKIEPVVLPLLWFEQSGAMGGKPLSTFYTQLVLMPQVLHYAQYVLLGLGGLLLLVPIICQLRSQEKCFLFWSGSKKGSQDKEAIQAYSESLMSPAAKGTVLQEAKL

`CCN(CC)CCCN=C(S)N1CCN(c2nc(-c3ccc(F)cc3)cs2)CC1`: the CC50 with Vero [1] was 13.3 µM (active). Further, the EC50 in [2], in [3] and in series [4] was > 120 µM (not active) in each case. In addition, the half-maximal activity concentration (AC50) in series [5] is 1 µM (active).
`Cc1cc(Cl)n2c(nc3ccccc32)c1C#N`: the EC50 was 0.343 µM (inconclusive) with BJ, 6.06 µM (inconclusive) in [8] and 0.54 µM (active) in series [10]. Moreover, at X-box-binding protein 1, the “Absolute IC50 (XBP1)” value came out at 10 µM. Further, the AC50 in series [6] is > 70 µM (inactive); in series [9], 5.72 µM (active); in series [11], 1.85 µM (active). In the series with HeLa [7], the CC50 is > 11 µM (not active).
For the compound `COc1cc(CC(=O)OCC(=O)Nc2ncc(Cl)cc2Cl)cc(OC)c1OC`, the IC50 on Bcl-2-like protein 10 was 68.3 µM (inactive).
As to `COCC#Cc1ccc(C2C(C)CCC3C(=O)N4C(CCC(C)C4c4ccc(C#CCOC)cc4)C(=O)N32)cc1` (centres undefined), at Cytochrome P450 2C9, the AC50 is 7.94 µM (inconclusive).
`COc1cc(NC(=O)c2cc(C3CC3)on2)c(OC)cc1Cl`: the EC50 in series [12] is 0.00219 µM (active). Moreover, in series [13], the CC50 is > 55.7 µM (inactive).
`COc1ccc(OC)c(Nc2ccc(Nc3cc(OC)ccc3OC)nn2)c1`: in [14], the AC50 is 19.8 µM (active).
Turning to `O=c1oc2ccccc2nc1/C=C(\O)c1ccc(Br)cc1`, the IC50 in the series “cells” is 5 µM (active). The AC50 with Salmon testes DNA was 56.9 µM (active).
For `Cn1c(N)c(C(=O)COC(=O)c2ccc(Cl)c(S(=O)(=O)N3CCCC3)c2)c(=O)n(C)c1=O`, the AC50 with HeLa [15] is 68.1 µM (active).
For `CCN(CC)c1ccc(NC(=O)Cn2c(C(C)NC(=O)c3ccc(C)cc3)nc3ccccc32)cc1` (centres undefined), the EC50 in series [16] is recorded as > 100 µM (not active).
For the compound `Nc1nc(-c2ccccn2)nc(N)c1Cc1c(F)cccc1Cl`, the IC50 in [17] was 4.08 µM (active); at Nonstructural protein 1, 6.42 µM (active); in series [18], 62.2 µM (not active); in [20], 7.4 µM (active). For the same compound, the AC50 with INS1 is 5.84 µM (active). Also, the figures for the EC50 in [19] and in series [21] were 5.25 µM (active) and 1.18 µM (active), respectively.
Take `CC(=O)Oc1cccc(N2C(=O)C3C(C2=O)C2(C)C=CC3(C)O2)c1` (centres undefined): the IC50 in series [22] is 9.86 µM (active) and 9.63 µM (active); in series [23] it was 12 µM (active) and 18.3 µM (active).
Turning to `CCCC/C=C1/CCC(CN(C)C)C1=O` (centres undefined), the GI50 is 0.164 µM (active) in the series on P388, 0.155 µM (active) in the series on P388/ADR and 0.776 µM (active) with SN12K1. For the same compound, the figures for the IC50 (in series [24]; in the series with Vero [26]; on Beta-galactosidase) were 27.1 µM (inactive), 21.8 µM (active) and > 66.6 µM (inactive), respectively. Moreover, in the series with Vero [25], the CC50 is > 25 µM (active).
For the compound `Fc1ccccc1/C=N/Nc1[nH]cnc2ncnc1-2`, the half-maximal activity concentration (AC50) in series [27] is 17.4 µM (active).

In general, CC50 refers to the concentration that lowers cell viability or growth by half. Usually EC50 stands for the concentration that produces a half-maximal response. The AC50 is the concentration giving half of the maximal activity seen. Usually IC50 stands for the concentration needed to halve the response being measured. In general, GI50 refers to the concentration at which growth is held to half of that of the control.
